Measured values: article PMC7771325 (Journal of medicinal chemistry, 2020)

Assay: Aqueous solubility
Assay type: physicochemical
Conditions: resisted cocrystallization attempts

aqueous solubility: low aqueous solubility
Structure (SMILES): Cn1cc(-c2[nH]c3cc(NC(=O)[C@H](N)C4CCCCC4)cc4c3c2C=NNC4=O)cn1 [PF-477736]
